Measurements published in BindingDB's records for doi:10.1124/jpet.103.049262 (Sanofi-Synthelabo Research, 2003).
pKi: −log10 of the molar value.

Assays:
[1] = target: Neuronal acetylcholine receptor subunit alpha-4 (Homo sapiens, UniProt P43681)
[2] = target: Acetylcholine receptor subunit alpha (Homo sapiens, UniProt P02708)
Sequence of Acetylcholine receptor subunit alpha (P02708 as listed by the source): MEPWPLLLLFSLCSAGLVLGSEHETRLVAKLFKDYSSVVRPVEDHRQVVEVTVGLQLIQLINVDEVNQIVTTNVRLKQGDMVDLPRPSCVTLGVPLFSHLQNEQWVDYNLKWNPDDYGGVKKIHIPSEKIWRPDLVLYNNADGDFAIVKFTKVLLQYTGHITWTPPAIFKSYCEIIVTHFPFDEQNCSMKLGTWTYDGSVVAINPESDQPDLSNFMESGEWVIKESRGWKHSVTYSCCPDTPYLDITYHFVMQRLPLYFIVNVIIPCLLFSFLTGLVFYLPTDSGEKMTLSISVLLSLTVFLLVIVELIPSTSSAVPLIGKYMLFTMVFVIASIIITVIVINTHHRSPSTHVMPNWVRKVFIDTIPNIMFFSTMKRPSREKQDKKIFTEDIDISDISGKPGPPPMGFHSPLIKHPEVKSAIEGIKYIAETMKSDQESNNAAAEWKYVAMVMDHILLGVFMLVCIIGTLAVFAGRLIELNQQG

Sequence of Neuronal acetylcholine receptor subunit alpha-4 (P43681 whole entry): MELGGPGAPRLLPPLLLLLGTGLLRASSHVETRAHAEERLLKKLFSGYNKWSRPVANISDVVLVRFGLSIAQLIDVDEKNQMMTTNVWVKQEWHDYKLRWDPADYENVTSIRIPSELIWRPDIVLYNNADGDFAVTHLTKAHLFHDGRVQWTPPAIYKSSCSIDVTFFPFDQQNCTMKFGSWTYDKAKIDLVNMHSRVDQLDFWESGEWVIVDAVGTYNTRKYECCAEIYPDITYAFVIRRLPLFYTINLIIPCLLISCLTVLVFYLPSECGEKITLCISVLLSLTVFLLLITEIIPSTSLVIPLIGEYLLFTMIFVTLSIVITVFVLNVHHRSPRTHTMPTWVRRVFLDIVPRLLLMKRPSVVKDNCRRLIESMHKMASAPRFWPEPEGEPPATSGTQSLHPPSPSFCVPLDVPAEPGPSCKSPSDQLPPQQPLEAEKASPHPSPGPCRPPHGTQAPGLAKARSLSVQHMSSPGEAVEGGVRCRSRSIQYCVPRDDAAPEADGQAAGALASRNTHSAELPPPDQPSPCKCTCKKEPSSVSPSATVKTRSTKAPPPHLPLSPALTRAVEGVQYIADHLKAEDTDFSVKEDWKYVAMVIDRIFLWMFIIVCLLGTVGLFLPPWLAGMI

With `c1cnc2c(c1)O[C@H]1CCN3CC[C@@]1(C2)C3` the pKi [1] was 7.44 and the pKi [2] was 5.22.
